In the NIST ThermoML archive (doi:10.1016/j.fluid.2010.04.016):
Numbers after ± are expanded uncertainties.

Details: Crystal; visual observation

Row | Normal melting temperature | Compound
1 | 7.04 ± 0.16 °C | CCCCCCCCCCO [decan-1-ol]
2 | -15.4 ± 0.16 °C | CCCCCCCCO [octan-1-ol]
